Measurements taken from the supplement of paper PMC8882468.

Each compound was assayed on HCI-002 (organoid from a triple-negative breast cancer xenograft) (assay: CTG-3D luminescence at 96 h relative to day-0 seeding control (ratio to day 0); higher = more growth / less cytotoxicity; PDxO 3D drug screen, 96 h, CTG-3D normalised to day-0 seeding control.). Conditions: 10 µM; days in culture: 209.

Row | Compound | CTG-3D luminescence at 96 h
1 | C[C@@H]1COCCN1c1cc(C2([S@](C)(=N)=O)CC2)nc(-c2cc[nH]c3nccc2-3)n1 [ceralasertib] | 0.743
2 | CCN1CCN(Cc2ccc(Nc3ncc(F)c(-c4cc(F)c5nc(C)n(C(C)C)c5c4)n3)nc2)CC1 [abemaciclib] | 0.0253
3 | NC1(C(=O)N[C@@H](CCO)c2ccc(Cl)cc2)CCN(c2nc[nH]c3nccc2-3)CC1 [capivasertib] | 1.45
4 | CC(C)n1nc(-c2ccc3oc(N)nc3c2)c2c(N)ncnc21 [sapanisertib] | 0.209
5 | O=C(c1ccc(F)c(F)c1Nc1ccc(I)cc1F)N1CC(O)([C@@H]2CCCCN2)C1 [cobimetinib] | 0.589
6 | C[C@H](NC(=O)CCC(F)(F)F)C(=O)N[C@@H]1C(=O)N(CCO)c2ncccc2-c2ccccc21 [crenigacestat] | 1.93
7 | Cc1cc(Nc2ncc(Cl)c(Nc3ccccc3S(=O)(=O)C(C)C)n2)c(OC(C)C)cc1C1CCNCC1 [ceritinib] | 0.00677
8 | CS(=O)(=O)c1ccc(C(=O)Nc2ccc(Cl)c(-c3ccccn3)c2)c(Cl)c1 [vismodegib] | 2.31
9 | NC(=O)c1cccc2cn(-c3ccc([C@@H]4CCCNC4)cc3)nc12 [niraparib] | 0.302

Same assay, conditions: 10 µM; days in culture: 227

Row | Compound | CTG-3D luminescence at 96 h
10 | C[C@@H]1COCCN1c1cc(C2([S@](C)(=N)=O)CC2)nc(-c2cc[nH]c3nccc2-3)n1 [ceralasertib] | 1.48
11 | CCN1CCN(Cc2ccc(Nc3ncc(F)c(-c4cc(F)c5nc(C)n(C(C)C)c5c4)n3)nc2)CC1 [abemaciclib] | 0.0659
12 | NC1(C(=O)N[C@@H](CCO)c2ccc(Cl)cc2)CCN(c2nc[nH]c3nccc2-3)CC1 [capivasertib] | 4.63
13 | CC(C)n1nc(-c2ccc3oc(N)nc3c2)c2c(N)ncnc21 [sapanisertib] | 0.598
14 | O=C(c1ccc(F)c(F)c1Nc1ccc(I)cc1F)N1CC(O)([C@@H]2CCCCN2)C1 [cobimetinib] | 1.04
15 | C[C@H](NC(=O)CCC(F)(F)F)C(=O)N[C@@H]1C(=O)N(CCO)c2ncccc2-c2ccccc21 [crenigacestat] | 4.97
16 | Cc1cc(Nc2ncc(Cl)c(Nc3ccccc3S(=O)(=O)C(C)C)n2)c(OC(C)C)cc1C1CCNCC1 [ceritinib] | -0.223
17 | CS(=O)(=O)c1ccc(C(=O)Nc2ccc(Cl)c(-c3ccccn3)c2)c(Cl)c1 [vismodegib] | 4.34
18 | NC(=O)c1cccc2cn(-c3ccc([C@@H]4CCCNC4)cc3)nc12 [niraparib] | 0.87

Same assay, conditions: 100 µM; days in culture: 62

Row | Compound | CTG-3D luminescence at 96 h
19 | C[C@@H]1COCCN1c1cc(C2([S@](C)(=N)=O)CC2)nc(-c2cc[nH]c3nccc2-3)n1 [ceralasertib] | 0.574
20 | CCN1CCN(Cc2ccc(Nc3ncc(F)c(-c4cc(F)c5nc(C)n(C(C)C)c5c4)n3)nc2)CC1 [abemaciclib] | 0.0177
21 | NC1(C(=O)N[C@@H](CCO)c2ccc(Cl)cc2)CCN(c2nc[nH]c3nccc2-3)CC1 [capivasertib] | 0.503
22 | CC(C)n1nc(-c2ccc3oc(N)nc3c2)c2c(N)ncnc21 [sapanisertib] | 0.0431
23 | O=C(c1ccc(F)c(F)c1Nc1ccc(I)cc1F)N1CC(O)([C@@H]2CCCCN2)C1 [cobimetinib] | -0.0104
24 | C[C@H](NC(=O)CCC(F)(F)F)C(=O)N[C@@H]1C(=O)N(CCO)c2ncccc2-c2ccccc21 [crenigacestat] | 2.8
25 | Cc1cc(Nc2ncc(Cl)c(Nc3ccccc3S(=O)(=O)C(C)C)n2)c(OC(C)C)cc1C1CCNCC1 [ceritinib] | -0.00984
26 | CS(=O)(=O)c1ccc(C(=O)Nc2ccc(Cl)c(-c3ccccn3)c2)c(Cl)c1 [vismodegib] | 0.385
27 | NC(=O)c1cccc2cn(-c3ccc([C@@H]4CCCNC4)cc3)nc12 [niraparib] | -0.0877

Same assay, conditions: 100 µM; days in culture: 82

Row | Compound | CTG-3D luminescence at 96 h
28 | C[C@@H]1COCCN1c1cc(C2([S@](C)(=N)=O)CC2)nc(-c2cc[nH]c3nccc2-3)n1 [ceralasertib] | 0.274
29 | CCN1CCN(Cc2ccc(Nc3ncc(F)c(-c4cc(F)c5nc(C)n(C(C)C)c5c4)n3)nc2)CC1 [abemaciclib] | 0.0147
30 | NC1(C(=O)N[C@@H](CCO)c2ccc(Cl)cc2)CCN(c2nc[nH]c3nccc2-3)CC1 [capivasertib] | 0.418
31 | CC(C)n1nc(-c2ccc3oc(N)nc3c2)c2c(N)ncnc21 [sapanisertib] | 0.0264
32 | O=C(c1ccc(F)c(F)c1Nc1ccc(I)cc1F)N1CC(O)([C@@H]2CCCCN2)C1 [cobimetinib] | -0.0137
33 | C[C@H](NC(=O)CCC(F)(F)F)C(=O)N[C@@H]1C(=O)N(CCO)c2ncccc2-c2ccccc21 [crenigacestat] | 2.21
34 | Cc1cc(Nc2ncc(Cl)c(Nc3ccccc3S(=O)(=O)C(C)C)n2)c(OC(C)C)cc1C1CCNCC1 [ceritinib] | -0.0057
35 | CS(=O)(=O)c1ccc(C(=O)Nc2ccc(Cl)c(-c3ccccn3)c2)c(Cl)c1 [vismodegib] | 0.287
36 | NC(=O)c1cccc2cn(-c3ccc([C@@H]4CCCNC4)cc3)nc12 [niraparib] | -0.026

Same assay, conditions: 100 µM; days in culture: 91

Row | Compound | CTG-3D luminescence at 96 h
37 | C[C@@H]1COCCN1c1cc(C2([S@](C)(=N)=O)CC2)nc(-c2cc[nH]c3nccc2-3)n1 [ceralasertib] | 0.523
38 | CCN1CCN(Cc2ccc(Nc3ncc(F)c(-c4cc(F)c5nc(C)n(C(C)C)c5c4)n3)nc2)CC1 [abemaciclib] | 0.0268
39 | NC1(C(=O)N[C@@H](CCO)c2ccc(Cl)cc2)CCN(c2nc[nH]c3nccc2-3)CC1 [capivasertib] | 1.6
40 | CC(C)n1nc(-c2ccc3oc(N)nc3c2)c2c(N)ncnc21 [sapanisertib] | 0.0524
41 | O=C(c1ccc(F)c(F)c1Nc1ccc(I)cc1F)N1CC(O)([C@@H]2CCCCN2)C1 [cobimetinib] | -0.0112
42 | C[C@H](NC(=O)CCC(F)(F)F)C(=O)N[C@@H]1C(=O)N(CCO)c2ncccc2-c2ccccc21 [crenigacestat] | 2.88
43 | Cc1cc(Nc2ncc(Cl)c(Nc3ccccc3S(=O)(=O)C(C)C)n2)c(OC(C)C)cc1C1CCNCC1 [ceritinib] | -0.0215
44 | CS(=O)(=O)c1ccc(C(=O)Nc2ccc(Cl)c(-c3ccccn3)c2)c(Cl)c1 [vismodegib] | 0.194
45 | NC(=O)c1cccc2cn(-c3ccc([C@@H]4CCCNC4)cc3)nc12 [niraparib] | -0.0114

Same assay, conditions: 100 µM; days in culture: 191

Row | Compound | CTG-3D luminescence at 96 h
46 | C[C@@H]1COCCN1c1cc(C2([S@](C)(=N)=O)CC2)nc(-c2cc[nH]c3nccc2-3)n1 [ceralasertib] | 0.332
47 | CCN1CCN(Cc2ccc(Nc3ncc(F)c(-c4cc(F)c5nc(C)n(C(C)C)c5c4)n3)nc2)CC1 [abemaciclib] | 0.018
48 | NC1(C(=O)N[C@@H](CCO)c2ccc(Cl)cc2)CCN(c2nc[nH]c3nccc2-3)CC1 [capivasertib] | 0.435
49 | CC(C)n1nc(-c2ccc3oc(N)nc3c2)c2c(N)ncnc21 [sapanisertib] | 0.0974
50 | O=C(c1ccc(F)c(F)c1Nc1ccc(I)cc1F)N1CC(O)([C@@H]2CCCCN2)C1 [cobimetinib] | -0.00417
51 | C[C@H](NC(=O)CCC(F)(F)F)C(=O)N[C@@H]1C(=O)N(CCO)c2ncccc2-c2ccccc21 [crenigacestat] | 2.4
52 | Cc1cc(Nc2ncc(Cl)c(Nc3ccccc3S(=O)(=O)C(C)C)n2)c(OC(C)C)cc1C1CCNCC1 [ceritinib] | -0.00732
53 | CS(=O)(=O)c1ccc(C(=O)Nc2ccc(Cl)c(-c3ccccn3)c2)c(Cl)c1 [vismodegib] | 0.429
54 | NC(=O)c1cccc2cn(-c3ccc([C@@H]4CCCNC4)cc3)nc12 [niraparib] | -0.139

Same assay, conditions: 100 µM; days in culture: 209

Row | Compound | CTG-3D luminescence at 96 h
55 | C[C@@H]1COCCN1c1cc(C2([S@](C)(=N)=O)CC2)nc(-c2cc[nH]c3nccc2-3)n1 [ceralasertib] | 0.29
56 | CCN1CCN(Cc2ccc(Nc3ncc(F)c(-c4cc(F)c5nc(C)n(C(C)C)c5c4)n3)nc2)CC1 [abemaciclib] | 0.014
57 | NC1(C(=O)N[C@@H](CCO)c2ccc(Cl)cc2)CCN(c2nc[nH]c3nccc2-3)CC1 [capivasertib] | 0.402
58 | CC(C)n1nc(-c2ccc3oc(N)nc3c2)c2c(N)ncnc21 [sapanisertib] | 0.0077
59 | O=C(c1ccc(F)c(F)c1Nc1ccc(I)cc1F)N1CC(O)([C@@H]2CCCCN2)C1 [cobimetinib] | -0.00565
60 | C[C@H](NC(=O)CCC(F)(F)F)C(=O)N[C@@H]1C(=O)N(CCO)c2ncccc2-c2ccccc21 [crenigacestat] | 2.41
61 | Cc1cc(Nc2ncc(Cl)c(Nc3ccccc3S(=O)(=O)C(C)C)n2)c(OC(C)C)cc1C1CCNCC1 [ceritinib] | -0.00747
62 | CS(=O)(=O)c1ccc(C(=O)Nc2ccc(Cl)c(-c3ccccn3)c2)c(Cl)c1 [vismodegib] | 0.207
63 | NC(=O)c1cccc2cn(-c3ccc([C@@H]4CCCNC4)cc3)nc12 [niraparib] | -0.0818

Same assay, conditions: 100 µM; days in culture: 227

Row | Compound | CTG-3D luminescence at 96 h
64 | C[C@@H]1COCCN1c1cc(C2([S@](C)(=N)=O)CC2)nc(-c2cc[nH]c3nccc2-3)n1 [ceralasertib] | 0.366
65 | CCN1CCN(Cc2ccc(Nc3ncc(F)c(-c4cc(F)c5nc(C)n(C(C)C)c5c4)n3)nc2)CC1 [abemaciclib] | 0.0285
66 | NC1(C(=O)N[C@@H](CCO)c2ccc(Cl)cc2)CCN(c2nc[nH]c3nccc2-3)CC1 [capivasertib] | 0.534
67 | CC(C)n1nc(-c2ccc3oc(N)nc3c2)c2c(N)ncnc21 [sapanisertib] | 0.0372
68 | O=C(c1ccc(F)c(F)c1Nc1ccc(I)cc1F)N1CC(O)([C@@H]2CCCCN2)C1 [cobimetinib] | -0.0104
69 | C[C@H](NC(=O)CCC(F)(F)F)C(=O)N[C@@H]1C(=O)N(CCO)c2ncccc2-c2ccccc21 [crenigacestat] | 3.7
70 | Cc1cc(Nc2ncc(Cl)c(Nc3ccccc3S(=O)(=O)C(C)C)n2)c(OC(C)C)cc1C1CCNCC1 [ceritinib] | -0.242
71 | CS(=O)(=O)c1ccc(C(=O)Nc2ccc(Cl)c(-c3ccccn3)c2)c(Cl)c1 [vismodegib] | 0.447
72 | NC(=O)c1cccc2cn(-c3ccc([C@@H]4CCCNC4)cc3)nc12 [niraparib] | -0.0133

Same assay, conditions: 625 fM; days in culture: 62

Row | Compound | CTG-3D luminescence at 96 h
73 | C[C@@H]1COCCN1c1cc(C2([S@](C)(=N)=O)CC2)nc(-c2cc[nH]c3nccc2-3)n1 [ceralasertib] | 2.93
74 | CCN1CCN(Cc2ccc(Nc3ncc(F)c(-c4cc(F)c5nc(C)n(C(C)C)c5c4)n3)nc2)CC1 [abemaciclib] | 2.98
75 | NC1(C(=O)N[C@@H](CCO)c2ccc(Cl)cc2)CCN(c2nc[nH]c3nccc2-3)CC1 [capivasertib] | 2.99
76 | CC(C)n1nc(-c2ccc3oc(N)nc3c2)c2c(N)ncnc21 [sapanisertib] | 2.93
